# From patent publication US10265277B2, “Composition of Olivetol and method of use to reduce or inhibit the effects of tetrahydrocannabinol in the human body” (Undoo, LLC, priority 2015, dated 2019)
# Test system: cannabis high (psychotropic effects of THC)
# Assay: real-life, non-clinical trials by volunteers: oral Olivetol softgel taken at peak of cannabis high, self-reported effects
# Assay type: in vivo, human
# Details: consumed before or after THC; general statement of the inventors
# Method: A number of real-life, non-clinical trials have been performed by volunteers, to test the effects of the consumption of embodiments of the present invention, the conditions and results of which are described as follows. All tests were performed in “real life,” rather than clinical conditions. Various methods of consumption of cannabis were used, such as consumption of edibles, inhalation of cannabis smoke, or inhalation of vapor, depending upon the volunteer's preference. Some subjects reported their pre-consumption mood, pain level, etc., as well as their level of experience with consumption of cannabis. After sufficient exposure to cannabis, each subject indicated when their euphoria or “high” had reached a high level or a peak. Then, the subject took one or more oral doses of an embodiment of the present invention, containing 30 mg of Olivetol combined with edible oil in a “softgel” pill. A timer was started and the subject then reported when they felt an awareness of a decrease or reduction in their euphoria or other cannabis effects, as well as their subjective feelings, mood, pain level or other observations, until they self-reported that their cannabis effects were concluded. […]
smiles,measurement,value
"CCCCCc1cc(O)cc(O)c1 [Olivetol, 5-pentylresorcinol]",effect of Olivetol consumption on psychotropic effects of THC,significantly reduce the psychotropic effects of THC ingestion
